“And” between values parts separate entries of the source, which are not always exact repeats. Equal values may be shown once. Read-outs that look alike come from different tables or passages of the source.
Experiments:
cytochrome bc1 complex [1] = target: cytochrome bc1 complex (Solanum tuberosum (Potato), UniProt P29757); test: Respiratory activity of potato mitochondria lacking AOX (cytochrome bc1 complex), oxygen electrode; assay type: biochemical; details: 0.3 mg potato mitochondria respiring on 1 mM NADH, 25° C., 1 μM CCCP
Protocol: (§1) Following on from this work, the inventors set out to test whether or not these compounds also have any effect on the respiratory activity of cytochrome bc1 complex.
(§2) Respiratory activity was measured in a medium containing 0.3M mannitol, 10 mM KCl, 5 mM MgCl2, 1 mM potassium phosphate and 10 mM MOPS (3-(N-morpholino)propanesulfonic acid) buffer pH7.4. Either 0.9 mg of rat liver mitochondria respiring on 5 mM succinate or 0.3 mg potato mitochondria respiring on 1 mM NADH were used. Respiration was measured using a Rank oxygen electrode of 0.4 ml volume at 25° C. in the presence of 1 μM CCCP (Carbonyl cyanide […]). The results were compared with ascochlorin (a known bc1 inhibitor) and azoxystrobin (a commercial fungicide targeted at the bc1 complex).
(§3) Tables 3 and 4 summarise the concentration of inhibitor that was required to reduce the respiration of cytochrome bc1 complex (in the absence of AOX) by 50%. […] The lower the IC50 value the better, since it means that a lower amount of the compound is needed to halve the respiratory activity.

cytochrome bc1 complex [2] = target: cytochrome bc1 complex (Rattus norvegicus (Rat), UniProt P00159); test: Respiratory activity of rat liver mitochondria lacking AOX (cytochrome bc1 complex), oxygen electrode; assay type: biochemical; details: 0.9 mg rat liver mitochondria respiring on 5 mM succinate; 25° C.; 1 μM CCCP
Protocol: as §1, §2, §3

other quinol oxidases = test: Specificity versus other quinol oxidases; assay type: biochemical; details: specific for membrane-bound and purified AOX
[3] = tested on: Qo and Qi binding-sites of cytochrome bc1 complex; test: Titration using mitochondria in which the alternative oxidase is absent: bc1 binding sites inhibited; assay type: biochemical; details: mitochondria without AOX
From the text: as §1

recombinant AOX protein = recombinant AOX protein (Trypanosoma brucei brucei, UniProt Q26710); test: biochemical; details: purified recombinant AOX protein; oxygen consumption; 1 mM NADH as substrate
Protocol: Table 1 summarises the concentration of inhibitor required to reduce the respiration of purified recombinant AOX protein by 50%. Respiration was measured as the rate of oxygen consumption in the presence of 1 mM NADH as substrate and the numbers represent the final I50 concentration of the inhibitor.

[4] = read-out: IC50 (Potato mitochondria)

Compound | IC50 (cytochrome bc1 complex [1]; IC50 (Potato mitochondria)) | IC50 (cytochrome bc1 complex [2]) | IC50 (cytochrome bc1 complex [1]; [4]) | other results
CC(/C=C/[C@@]1(C)[C@H](C)CCC(=O)[C@@H]1C)=C\Cc1c(O)c(Cl)c(C)c(C=O)c1O [Ascochlorin, ascochlorin] | 500 nM | 187 nM | – | –
C/C(=C\Cc1c(O)c(Cl)c(C)c(C=O)c1O)CC/C=C(\C)[C@@H]1CC(=O)C(C)(C)O1 [Ascofuranone] | ~30000 nM and 30000 nM | – | – | –
CO/C=C(/C(=O)OC)c1ccccc1Oc1cc(Oc2ccccc2C#N)ncn1 [Azoxystrobin, azoxystrobin] | – | ~525 nM and 525 nM | ~1400 nM and 1400 nM | –
CC(C)=CCC/C(C)=C/Cc1c(O)c(Cl)c(C)c(C=O)c1O [Colletochlorin B] | – | – | 750 nM | inhibition of other quinol oxidases (other quinol oxidases): did not appear to inhibit other quinol oxidases; cytochrome bc1 complex binding sites inhibited [3]: both the Qo and Qi binding-sites
CCCCCCCCOC(=O)c1cc(O)c(O)c(O)c1 [Octyl Gallate] | – | – | – | IC50 (recombinant AOX protein): 105 nM

From US11565996B2, “Compounds for use as inhibitors of alternative oxidase or cytochrome bc1 complex” (AlternOx Scientific Limited, priority 2012, dated 2023)
